Read-outs that look alike come from different tables or passages of the source.
Columns and labels:
[1] = target: T1, bradykinin 1 receptor (B1R) of the rat (Rattus norvegicus, UniProt P97583); assay: Functional investigation on the rat bradykinin 1 receptor (B1R), Ca2+ FLIPR assay in CHO K1 rB1R cells; format: cell-based; details: CHO-K1, B1R antagonism rat, test substance 10 μM, read-out: B1R Ant. r [10 μM] % Inhibition
T1 construct: expressed in transfected cells; host or cells: CHO K1 cells
T1 sequence (P97583 1-337): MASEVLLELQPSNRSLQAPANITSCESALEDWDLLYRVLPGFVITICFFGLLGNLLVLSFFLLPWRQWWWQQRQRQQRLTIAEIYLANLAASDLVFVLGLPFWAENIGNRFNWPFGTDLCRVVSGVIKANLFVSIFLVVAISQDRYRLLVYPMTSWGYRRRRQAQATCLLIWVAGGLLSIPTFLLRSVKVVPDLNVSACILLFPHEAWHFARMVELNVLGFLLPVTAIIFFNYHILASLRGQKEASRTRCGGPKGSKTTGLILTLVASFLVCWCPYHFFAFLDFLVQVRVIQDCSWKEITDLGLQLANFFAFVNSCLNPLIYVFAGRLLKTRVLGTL
Summary of the method: (§1)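 Fluo-4 Ca2+ readout, peak fluorescence. Stable CHO K1 transfectants; compound pre-incubated 10-20 min, then EC80 agonist—Lys-Des-Arg9-BK for hB1R, Des-Arg9-BK for rB1R. % inhibition vs maximal inhibition; IC50 from multiple concentrations, duplicate/triplicate, ≥2 independent runs.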

human μ opiate receptor = target: T2, human μ opiate receptor (Homo sapiens, UniProt P35372); assay: Affinity for the human μ opiate receptor ([3H]-naloxone displacement, CHO-K1 receptor membrane preparation, SPA); format: binding; details: 1.5 h, Table 3, to be read in the same way as Table 1; test concentration 1 μM; read-out: μ
T2 construct: purchased PerkinElmer Life Sciences, Zaventem, Belgium RB-HOM; host or cells: CHO-K1 cells (membrane preparation)
Summary of the method: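 Test compounds, 1 nmol/l [3H]-naloxone and CHO-K1 membranes bearing the human μ opiate receptor are combined with WGA-SPA beads. After 90 minutes at room temperature, plates are centrifuged and radioactivity counted. Specific-binding inhibition at 1 μmol/l is given in percent.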

[2] = target: T3, human bradykinin 1 receptor (B1R) (Homo sapiens, UniProt P46663); assay: Functional investigation on the human bradykinin 1 receptor (B1R), Ca2+ FLIPR assay in CHO K1 hB1R cells; format: cell-based; details: CHO-K1, B1R antagonism human, test substance 10 μM, read-out: B1R Ant. h [10 μM] % Inhibition
T3 construct: expressed in transfected cells; host or cells: CHO K1 cells
T3 sequence (P46663 1-353): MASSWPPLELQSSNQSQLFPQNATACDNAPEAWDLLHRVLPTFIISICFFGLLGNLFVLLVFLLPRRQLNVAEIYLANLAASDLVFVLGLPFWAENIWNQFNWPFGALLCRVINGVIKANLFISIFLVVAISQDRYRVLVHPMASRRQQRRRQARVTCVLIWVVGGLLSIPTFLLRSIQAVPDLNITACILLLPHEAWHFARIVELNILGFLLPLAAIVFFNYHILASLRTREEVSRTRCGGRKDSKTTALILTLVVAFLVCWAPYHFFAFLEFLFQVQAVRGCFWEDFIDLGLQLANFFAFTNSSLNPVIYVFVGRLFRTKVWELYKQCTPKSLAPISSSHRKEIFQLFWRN
Summary of the method: as §1

[3] = % inhibition compared with the maximum achievable inhibition

T2 sequence (P35372 whole entry): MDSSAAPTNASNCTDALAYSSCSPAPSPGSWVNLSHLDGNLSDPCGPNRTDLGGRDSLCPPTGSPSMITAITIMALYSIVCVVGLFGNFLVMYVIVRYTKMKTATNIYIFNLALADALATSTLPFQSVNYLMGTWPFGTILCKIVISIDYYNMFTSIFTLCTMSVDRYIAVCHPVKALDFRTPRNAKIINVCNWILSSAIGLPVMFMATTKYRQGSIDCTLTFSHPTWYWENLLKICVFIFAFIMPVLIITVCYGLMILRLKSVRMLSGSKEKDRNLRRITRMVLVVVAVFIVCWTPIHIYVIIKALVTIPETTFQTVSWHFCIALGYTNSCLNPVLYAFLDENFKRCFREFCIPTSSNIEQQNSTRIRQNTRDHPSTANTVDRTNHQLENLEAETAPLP

## COc1cc(C)c(S(=O)(=O)N2CCCC(COCC(=O)NCC3CCC(C(CCc4ccccc4)N4CCCC4)CC3)C2)c(C)c1 (stereo not drawn) [Example 757, 2-((1-(4-methoxy-2,6-dimethylphenylsulfonyl)piperidin-3-yl)methoxy)-N-((4-(3-phenyl-1-(pyrrolidin-1-yl)propyl)cyclohexyl)methyl)acetamide]
[1]; Ca2+ FLIPR, CHO K1 rB1R cells
  inhibition at 10 µM: 100%
Human μ opiate receptor
  inhibition at 1 µM: 32%
[2]; Ca2+ FLIPR, CHO K1 hB1R cells
  inhibition at 10 µM: 103%

## O=C(COCC1CCCN(S(=O)(=O)c2c(Cl)cc(Cl)cc2Cl)C1)NCC1CCC(C(CCc2ccccc2)N2CCOCC2)CC1 (stereo not drawn) [Example 758, N-((4-(1-morpholino-3-phenylpropyl)cyclohexyl)methyl)-2-((1-(2,4,6-trichlorophenylsulfonyl)piperidin-3-yl)methoxy)acetamide]
[1]; Ca2+ FLIPR, CHO K1 rB1R cells
  inhibition at 10 µM: 107%
Human μ opiate receptor
  inhibition at 1 µM: 25%
[2]; Ca2+ FLIPR, CHO K1 hB1R cells
  inhibition at 10 µM: 41%

## O=C(COCC1CCCN(S(=O)(=O)c2c(Cl)cc(Cl)cc2Cl)C1)NCC1CCC(C(CCc2ccccc2)N2CCCC2)CC1 (stereo not drawn) [Example 759, N-((4-(3-phenyl-1-(pyrrolidin-1-yl)propyl)cyclohexyl)methyl)-2-((1-(2,4,6-trichlorophenylsulfonyl)piperidin-3-yl)methoxy)acetamide]
[1]; Ca2+ FLIPR, CHO K1 rB1R cells
  inhibition at 10 µM: 56%
Human μ opiate receptor
  inhibition at 1 µM: 87%
[2]; Ca2+ FLIPR, CHO K1 hB1R cells
  inhibition at 10 µM: 100%

## COc1cc(C)c(S(=O)(=O)N(C)CCOCC(=O)N2CCC(C(c3ccccc3)N3CCN(C)CC3)CC2)c(C)c1 (stereo not drawn) [Example 798, 4-methoxy-N,2,6-trimethyl-N-(2-(2-(4-((4-methylpiperazin-1-yl)(phenyl)methyl)piperidin-1-yl)-2-oxoethoxy)ethyl)benzenesulfonamide]
[1]; [3]
  inhibition at 10 µM: 100%
Human μ opiate receptor
  inhibition at 1 µM: 19%
[2]; [3]
  inhibition at 10 µM: 110%

## COc1cc(C)c(S(=O)(=O)N(C)CCOCC(=O)N2CCC(C(c3cccc(F)c3)N3CCN(C)CC3)CC2)c(C)c1 (stereo not drawn) [Example 799, N-(2-(2-(4-((3-fluorophenyl)(4-methylpiperazin-1-yl)methyl)piperidin-1-yl)-2-oxoethoxy)ethyl)-4-methoxy-N,2,6-trimethylbenzenesulfonamide]
[1]; [3]
  inhibition at 10 µM: 100%
Human μ opiate receptor
  inhibition at 1 µM: 16%
[2]; [3]
  inhibition at 10 µM: 110%

## COc1cc(C)c(S(=O)(=O)N2CCCCC2COCC(=O)N2CCC(C(c3cccc(F)c3)N3CCN(C)CC3)CC2)c(C)c1 (stereo not drawn) [Example 800, 1-(4-((3-fluorophenyl)(4-methylpiperazin-1-yl)methyl)piperidin-1-yl)-2-((1-(4-methoxy-2,6-dimethylphenylsulfonyl)piperidin-2-yl)methoxy)ethanone]
[1]; [3]
  inhibition at 10 µM: 97%
Human μ opiate receptor
  inhibition at 1 µM: 7%
[2]; [3]
  inhibition at 10 µM: 108%

## COc1cc(C)c(S(=O)(=O)N(C)CCOCC(=O)N2CCC(C(CCc3ccccc3)N3CCN(C)CC3)CC2)c(C)c1 (stereo not drawn) [Example 801, 4-methoxy-N,2,6-trimethyl-N-(2-(2-(4-(1-(4-methylpiperazin-1-yl)-3-phenylpropyl)piperidin-1-yl)-2-oxoethoxy)ethyl)benzenesulfonamide]
[1]; [3]
  inhibition at 10 µM: 97%
Human μ opiate receptor
  inhibition at 1 µM: 21%
[2]; [3]
  inhibition at 10 µM: 106%

## COc1cc(C)c(S(=O)(=O)N2CCCCC2COCC(=O)N2CCC(C(Cc3ccccc3)N3CCN(C)CC3)CC2)c(C)c1 (stereo not drawn) [Example 802, 2-((1-(4-methoxy-2,6-dimethylphenylsulfonyl)piperidin-2-yl)methoxy)-1-(4-(1-(4-methylpiperazin-1-yl)-2-phenylethyl)piperidin-1-yl)ethanone]
[1]; [3]
  inhibition at 10 µM: 97%
Human μ opiate receptor
  inhibition at 1 µM: 27%
[2]; [3]
  inhibition at 10 µM: 106%

## COc1cc(C)c(S(=O)(=O)N(C)CCOCC(=O)N2CCC(C(Cc3ccccc3)N3CCN(C)CC3)CC2)c(C)c1 (stereo not drawn) [Example 803, 4-methoxy-N,2,6-trimethyl-N-(2-(2-(4-(1-(4-methylpiperazin-1-yl)-2-phenylethyl)piperidin-1-yl)-2-oxoethoxy)ethyl)benzenesulfonamide]
[1]; [3]
  inhibition at 10 µM: 99%
Human μ opiate receptor
  inhibition at 1 µM: 13%
[2]; [3]
  inhibition at 10 µM: 108%

## COc1cc(C)c(S(=O)(=O)N(C)CCOCC(=O)N2CCC(C(c3ccc(F)cc3)N3CCN(C)CC3)CC2)c(C)c1 (stereo not drawn) [Example 804, N-(2-(2-(4-((4-fluorophenyl)(4-methylpiperazin-1-yl)methyl)piperidin-1-yl)-2-oxoethoxy)ethyl)-4-methoxy-N,2,6-trimethylbenzenesulfonamide]
[1]; [3]
  inhibition at 10 µM: 100%
Human μ opiate receptor
  inhibition at 1 µM: 9%
[2]; [3]
  inhibition at 10 µM: 105%

## COc1cc(C)c(S(=O)(=O)N2CCCCC2COCC(=O)N2CCC(C(c3ccc(F)cc3)N3CCN(C)CC3)CC2)c(C)c1 (stereo not drawn) [Example 805, 1-(4-((4-fluorophenyl)(4-methylpiperazin-1-yl)methyl)piperidin-1-yl)-2-((1-(4-methoxy-2,6-dimethylphenylsulfonyl)piperidin-2-yl)methoxy)ethanone]
[1]; [3]
  inhibition at 10 µM: 99%
Human μ opiate receptor
  inhibition at 1 µM: 4%
[2]; [3]
  inhibition at 10 µM: 103%

## COc1cc(C)c(S(=O)(=O)N2CCCCC2COCC(=O)N2CCC(C(CCc3ccccc3)N3CCN(C)CC3)CC2)c(C)c1 (stereo not drawn) [Example 806, 2-((1-(4-methoxy-2,6-dimethylphenylsulfonyl)piperidin-2-yl)methoxy)-1-(4-(1-(4-methylpiperazin-1-yl)-3-phenylpropyl)piperidin-1-yl)ethanone]
[1]; [3]
  inhibition at 10 µM: 99%
Human μ opiate receptor
  inhibition at 1 µM: 12%
[2]; [3]
  inhibition at 10 µM: 109%

## COc1cc(C)c(S(=O)(=O)N2CCCCC2COCC(=O)N2CCC(C(c3ccccc3)N3CCN(C)CC3)CC2)c(C)c1 (stereo not drawn) [Example 807, 2-((1-(4-methoxy-2,6-dimethylphenylsulfonyl)piperidin-2-yl)methoxy)-1-(4-((4-methylpiperazin-1-yl)(phenyl)methyl)piperidin-1-yl)ethanone]
[1]; [3]
  inhibition at 10 µM: 98%
Human μ opiate receptor
  inhibition at 1 µM: 11%
[2]; [3]
  inhibition at 10 µM: 105%

## CN1CCN(C(c2ccc(F)cc2)C2CCN(C(=O)COCC3CCc4ccccc4N3S(=O)(=O)c3ccc(Cl)c(Cl)c3)CC2)CC1 (stereo not drawn) [Example 808, 2-((1-(3,4-dichlorophenylsulfonyl)-1,2,3,4-tetrahydroquinolin-2-yl)methoxy)-1-(4-((4-fluorophenyl)(4-methylpiperazin-1-yl)methyl)piperidin-1-yl)ethanone]
[1]; [3]
  inhibition at 10 µM: 75%
Human μ opiate receptor
  inhibition at 1 µM: 12%
[2]; [3]
  inhibition at 10 µM: 122%

## CN1CCN(C(c2cccc(F)c2)C2CCN(C(=O)COCC3CCc4ccccc4N3S(=O)(=O)c3ccc(Cl)c(Cl)c3)CC2)CC1 (stereo not drawn) [Example 809, 2-((1-(3,4-dichlorophenylsulfonyl)-1,2,3,4-tetrahydroquinolin-2-yl)methoxy)-1-(4-((3-fluorophenyl)(4-methylpiperazin-1-yl)methyl)piperidin-1-yl)ethanone]
[1]; [3]
  inhibition at 10 µM: 87%
Human μ opiate receptor
  inhibition at 1 µM: 6%
[2]; [3]
  inhibition at 10 µM: 109%

## CN1CCN(C(c2ccccc2)C2CCN(C(=O)COCC3CCc4ccccc4N3S(=O)(=O)c3ccc(Cl)c(Cl)c3)CC2)CC1 (stereo not drawn) [Example 810, 2-((1-(3,4-dichlorophenylsulfonyl)-1,2,3,4-tetrahydroquinolin-2-yl)methoxy)-1-(4-((4-methylpiperazin-1-yl)(phenyl)methyl)piperidin-1-yl)ethanone]
[1]; [3]
  inhibition at 10 µM: 97%
Human μ opiate receptor
  inhibition at 1 µM: 19%
[2]; [3]
  inhibition at 10 µM: 102%

Reference: patent publication US8106055B2, “Substituted amide compounds” (Gruenenthal GmbH, priority 2007, dated 2012)
